Assay results: patent publication US10905703B2, “Preparation of a composition containing stilbene glycoside” (priority 2015, dated 2021)

Tests used:
female KK CgAy/J mice = assay: Anti-diabetic effect of stilbene glycoside in female KK CgAy/J mice incl. glucose and insulin tolerance tests; assay type: in vivo; settings: for blood / serum glucose level vs diabetic control: stilbene glycoside 0.075% in drinking water, metformin 300 mg/kg; for insulin tolerance test: level of glucose: 30 minutes after insulin injection
Text: Female KK CgAy/J mice were also utilized in this experiment and handled with the same protocol as in 1.2.3. The mice were divided into four groups with 10 each, and fed with Western HFD. […] Body weight, food and water uptake of the mice were taken on a regular basis. After 12 weeks, all the experimental mice were sacrificed. Similar measurements were taken to the previous experiment with PM extract. Before sacrifice, all the experimental mice were subjected to glucose and insulin tolerance tests. For glucose tolerance test, mice were fasted overnight and injected with glucose solution at 1 g/10 ml and 10 ml/kg body weight. The change in blood glucose level was monitored during the following two hours. For insulin tolerance test, mice were fasted for 5 hours and injected with insulin solution at 1 u/ml and 10 ml/kg body weight. The change in blood glucose level was monitored during the following two hours.

[1] = rats, cited from earlier work
[2] = cited from earlier work
[3] = compared with resveratrol; cited from earlier work
male CF-1 mice = assay: Animal study with pure trans- and cis-stilbene glycoside in high fat diet induced male CF-1 mice; assay type: in vivo; settings: for GTT: rise in blood glucose level / effect on glucose intolerance / serum insulin levels / serum glucose level: 0.01% in drinking water; for GTT: rise in blood glucose level / effect on glucose intolerance / serum insulin levels: HFD 12 weeks; for GTT: rise in blood glucose level / effect on glucose intolerance: intraperitoneal glucose; for serum insulin levels: vs HF group; for serum glucose level: HFD for 12 weeks, FIG. 12
Text: Male CF-1 mice were selected as the model for type 2 diabetes. The mice were kept on Western HFD for 12 weeks and were divided into five groups with 10 each. Group I: Normal control which had free access to drinking water and normal Chow; Group II: Diabetic control which had free access to drinking water and Western HFD; Group III: Treatment group which had free access to drinking water with 0.01% of pure trans-stilbene glycoside and HFD; Group IV: Treatment group which had free access to drinking water with 0.01% of pure cis-stilbene glycoside and Western HFD. Group V: […] Body weight, food and water uptake of the mice were taken on a regular basis. After 12 weeks, all the experimental mice were sacrificed. Body weight, blood glucose and blood insulin levels were evaluated as described before. Glucose tolerance test was also carried out at the end of the study.

[4] = tested on: phosphoenolpyruvate carboxykinase (PEPCK) mRNA expression; assay: PEPCK assay (qPCR of Dex-cAMP induced PEPCK mRNA) in HepG2 cells; assay type: cell-based; settings: for concentration dependence of PEPCK suppression: 30 μM vs 100 μM; for reduction of PEPCK mRNA compared to Dex/cAMP group: comparative Ct method; for suppression of Dex/cAMP-induced up-regulation of PEPCK transcription: normalized with β-actin, FIG. 13A
Procedure: The HepG2 cells were plated in 24-well tissue culture plates and were grown to near confluence in Dulbecco's modified Eagle's medium containing 2.5% (vol/vol) newborn calf serum and 2.5% (vol/vol) fetal calf serum. […]
Total RNA was extracted from HepG2 cells using Trizol reagent, following the manufacturer's instructions. RNA was quantified spectrophotometrically by absorbance measurements at 260 and 280 nm. Quality of RNA was assessed by separation in gel electrophoresis. RNA was then treated with Dnasel (Invitrogen), following the manufacturer's guidelines, to remove any traces of DNA contamination. The cDNAs were synthesized with […] of RNA for each sample, using Stratascript reverse transcriptase (Stratagene, La Jolla, Calif.), following the manufacturer's protocol. The synthesized cDNAs were diluted fourfold. Five microliters of each of these diluted samples was used for PCR reactions of 25 ηL final volume. The other components of the PCR reactions were 0.5 ηL of 6 ηM gene-specific primers and 12.5 ηL of Brilliant SYBR Green PCR master mix (containing green jump-start Taq ready mix). ROX (Stratagene, La Jolla, Calif.) was used as a reference dye. The primers were selected using the Primer Express version 2.0 software (Applied Biosystems, Foster City, Calif.). These primers generated a 76-bp product from β-actin mRNA. The intron-spanning forward primer was selected to cover the exon 9-10 boundary. The reverse primer was selected from exon 10. The oligos were synthesized by IDT. These primers generated a 74-bp product from PEPCK mRNA and a 207-bp product from genomic DNA.
Quantitative PCR (qPCR) amplifications were performed on an MX3000p system (Stratagene, La Jolla, Calif.) using one cycle at 50° C. for 2 min and one cycle of 95° C. for 10 min, followed by 40 cycles of 15 s at 95° C. and 1 min at 60° C. The dissociation curve was completed with one cycle of 1 min at 95° C., 30 s at 55° C., and 30 s at 95° C. Non-RT control and no-template control were included in each experiment as quality control steps.
PEPCK mRNA expressions were analyzed using the ΔΔCT method and normalized with respect to the expression of the β-actin house keeping gene. The ΔΔCT Values obtained from these methods reflect the relative mRNA quantities for a specific gene in response to a treatment as relative to a calibrator. The Dex-cAMP treatment (positive control) served as the calibrator sample in this study. The PECPK gene expression of the calibrator sample was assigned to a value of 1.0. A value of <1.0 indicates transcriptional down-regulation (inhibition of gene expression) relative to the calibrator. Amplification of specific transcripts was further confirmed by obtaining melting curve profiles. All samples were run in duplicate.

female KK mice = assay: Animal study with trans- and cis-stilbene glycoside extracts in HFD-induced female KK mice; assay type: in vivo; settings: 18 weeks HFD, solutions in drinking water
Procedure: Female KK mice were purchased from Jackson labs (Barr Harbor, Me.) and were housed in stainless steel wire-bottomed cages and acclimatized under laboratory conditions (19-23° C., humidity 60%, 12 h light/dark cycle). Normal control mice (n=10) were fed with control diet which was normal Chow 5001 from LabDiet (St. Louis, Mo.) and was composed of 28.5 kcal % protein, 58 kcal % carbohydrate and 13.5 kcal % fat. Diabetic control mice (n=10) were induced with HFD (Research Diets, New Brunswick, N.J.) composed of 20 kcal % protein, 20 kcal % carbohydrate, and 60 kcal % fat (from butter) for 18 weeks. Three solutions were administered to mice (n=10 each) on HFD ad libitum and the compositions are shown below. Solution 1: pure trans-stilbene glycoside (0.05% in drinking water), HPLC chromatogram in FIG. 3.2 (A); Solution 2: 60% ethanol extract of PM root powders, obtained according to procedure in Section 1.2.1 (proportion of cis-stilbene glycoside to trans-stilbene glycoside is approximately 1:20, 0.075% in drinking water), HPLC chromatogram in FIG. 3.2 (B); Solutions 3: obtained from exposing solution 2 under UV-light overnight (proportion of cis-stilbene glycoside to trans-stilbene glycoside is approximately 2:3, 0.075% in drinking water), HPLC chromatogram in FIG. 3.2 (C). After 18 weeks, body weight and blood glucose of all mice were measured.

CN(C)C(=N)N=C(N)N [metformin, reference compound]
blood / serum glucose level vs diabetic control (female KK CgAy/J mice; 12 weeks HFD, FIG. 6): effectively brought down | insulin tolerance test: level of glucose (female KK CgAy/J mice; FIG. 7B): higher level of glucose | insulin tolerance test: blood glucose (female KK CgAy/J mice; two hours after insulin injection, FIG. 7B): dropped to a lower level than that of stilbene glycoside group

OC[C@H]1O[C@@H](Oc2c(O)cc(O)cc2/C=C/c2ccc(O)cc2)[C@H](O)[C@@H](O)[C@@H]1O [stilbene glycoside, 2,3,5,4-tetrahydroxystilbene 2-O-β-glucopyranoside]
serum insulin level vs diabetic control (female KK CgAy/J mice; 12 weeks HFD, 0.075% in drinking water, FIG. 6): elevated | blood / serum glucose level vs diabetic control (female KK CgAy/J mice; 12 weeks HFD, FIG. 6): elevated | glucose tolerance test: blood glucose level (female KK CgAy/J mice; 30 minutes after glucose injection (1 g/kg), FIG. 7A): the most elevated | insulin tolerance test: level of glucose (female KK CgAy/J mice; FIG. 7B): higher level of glucose | glucose tolerance test: blood glucose (female KK CgAy/J mice; at the end of the test (two hours), FIG. 7A): remained much higher than normal control and metformin groups | glucose tolerance (female KK CgAy/J mice; overall finding of glucose tolerance test): glucose intolerant | time of distribution ([1]; single intravenous or oral administration): ≤ 30 min | Total recovery of unchanged stilbene glycoside in bile ([1]; within 24 hr): 0.041% | Total recovery of unchanged stilbene glycoside in feces ([1]; within 24 hr): 0.06% | amount of unchanged stilbene glycoside excreted in the urine ([1]; within 24 hr): lower than Lower Limit of Quantification (LLOQ) | Absolute bioavailability [1]: 40% | form of excretion ([1]; metabolites including monoglucuronide and the deglycosidated form): excreted mainly in the forms of metabolites | solubility [2]: soluble in water, methanol and ethanol | antioxidant activity [3]: higher antioxidant activity than resveratrol

OC[C@H]1O[C@@H](Oc2c(O)cc(O)cc2/C=C/c2ccc(O)cc2)[C@H](O)[C@@H](O)[C@@H]1O [cis-stilbene glycoside, 2,3,5,4-tetrahydroxystilbene 2-O-β-glucopyranoside]
GTT: rise in blood glucose level / effect on glucose intolerance (male CF-1 mice): greatly suppressed | serum insulin levels (male CF-1 mice): significantly lowered | serum glucose level (male CF-1 mice): significantly decrease | Calculated HOMA-IR lower than that in trans-stilbene glycoside group (male CF-1 mice; cis group relative to trans group): 102.7% | concentration dependence of PEPCK suppression [4]: suppressed more efficiently at 30 μM than at 100 μM | reduction of PEPCK mRNA compared to Dex/cAMP group ([4]; 30 μM): 61.7% | suppression of Dex/cAMP-induced up-regulation of PEPCK transcription [4]: effectively suppress

Cn1c(=O)c2c(ncn2C)n(C)c1=O [caffeine, reference compound]
serum glucose level (male CF-1 mice): significantly decrease

OC[C@H]1O[C@@H](Oc2c(O)cc(O)cc2/C=C/c2ccc(O)cc2)[C@H](O)[C@@H](O)[C@@H]1O [trans-stilbene glycoside, 2,3,5,4-tetrahydroxystilbene 2-O-β-glucopyranoside]
high fat induced body weight gain compared to diabetic control (female KK mice): none of the three solutions significantly decreased | GTT: rise in blood glucose level / effect on glucose intolerance (male CF-1 mice): absent | serum insulin levels (male CF-1 mice): significantly lowered | serum glucose level (male CF-1 mice): significantly decrease | concentration dependence of PEPCK suppression [4]: higher concentration resulted in lower level of PEPCK transcription | reduction of PEPCK mRNA compared to Dex/cAMP group ([4]; 100 μM): 53.3% | suppression of Dex/cAMP-induced up-regulation of PEPCK transcription [4]: effectively suppress
